One block for each compound: values may come before it. The source made the active and inactive calls. The calls are words filed in the database; no cut-off is given here.
How the values were obtained:
C2C12 [1] = test: Induction of myogenic differentiation in mouse C2C12 cells assessed as increase in number of nuclei per fiber at 0.1 uM after 7 days by immunofluorescence microscopy; format: functional, cell-based
C2C12 [2] = test: Induction of myogenic differentiation in mouse C2C12 cells assessed as MHC-positive fibers at 0.1 uM after 7 days by immunofluorescence microscopy; format: functional, cell-based
C2C12 [3] = test: Modulation of mouse C2C12 cell proliferation at 0.1 uM after 72 hrs; format: functional, cell-based
[4] = biological target: T1, Histone deacetylase (Homo sapiens) (UniProt Q13547+O15379+Q9UBN7+Q92769+Q9UQL6+Q8WUI4+Q9BY41+Q96DB2+P56524+Q9UKV0+Q969S8); test: Effect on HDAC in human HaCaT cells assessed as downregulation of miR-33a# at 10 uM after 1 hr by RT-PCR analysis; format: cell-based
[5] = biological target: T1, Histone deacetylase (Homo sapiens); test: Effect on HDAC in human HaCaT cells assessed as downregulation of miR-19b-1 at 10 uM after 1 hr by RT-PCR analysis; format: cell-based
[6] = biological target: T1, Histone deacetylase (Homo sapiens); test: Effect on HDAC in human HaCaT cells assessed as downregulation of miR-99b# at 10 uM after 1 hr by RT-PCR analysis; format: cell-based
[7] = biological target: T1, Histone deacetylase (Homo sapiens); test: Effect on HDAC in human HaCaT cells assessed as upregulation of miR-409-3p at 10 uM after 1 hr by RT-PCR analysis; format: cell-based
[8] = biological target: T1, Histone deacetylase (Homo sapiens); test: Effect on HDAC in human HaCaT cells assessed as downregulation of miR-27a# at 10 uM after 1 hr by RT-PCR analysis; format: cell-based
[9] = biological target: T1, Histone deacetylase (Homo sapiens); test: Effect on HDAC in human HaCaT cells assessed as downregulation of miR-200a# at 10 uM after 1 hr by RT-PCR analysis; format: cell-based
[10] = biological target: T1, Histone deacetylase (Homo sapiens); test: Effect on HDAC in human HaCaT cells assessed as upregulation of miR-192# at 10 uM after 1 hr by RT-PCR analysis; format: cell-based
[11] = biological target: T1, Histone deacetylase (Homo sapiens); test: Effect on HDAC in human HaCaT cells assessed as upregulation of miR-18a# at 10 uM after 1 hr by RT-PCR analysis; format: cell-based
[12] = biological target: T1, Histone deacetylase (Homo sapiens); test: Effect on HDAC in human HaCaT cells assessed as downregulation of miR-1254 at 10 uM after 1 hr by RT-PCR analysis; format: cell-based
[13] = biological target: T1, Histone deacetylase (Homo sapiens); test: Effect on HDAC in human HaCaT cells assessed as upregulation of miR-1305 at 10 uM after 1 hr by RT-PCR analysis; format: cell-based
[14] = biological target: T1, Histone deacetylase (Homo sapiens); test: Effect on HDAC in human HaCaT cells assessed as downregulation of miR-106b# at 10 uM after 1 hr by RT-PCR analysis; format: cell-based
[15] = biological target: T1, Histone deacetylase (Homo sapiens); test: Effect on HDAC in human HaCaT cells assessed as downregulation of miR-378 at 10 uM after 1 hr by RT-PCR analysis; format: cell-based
[16] = biological target: Histone deacetylase 4 (Homo sapiens) (UniProt P56524); test: Induction of HDAC4 nuclear shuttling in human HaCaT cells at 10 uM after 1 hr by immunofluorescence method relative to DMSO-treated control; format: cell-based
[17] = biological target: Histone deacetylase 2 (Homo sapiens) (UniProt Q92769); test: Induction of HDAC2 cysteine S-nitrosylation in human HaCaT cells at 10 uM after 1 hr by immunoprecipitation method in prsence of NO scavenger PTIO; format: cell-based
[18] = biological target: Histone deacetylase 2 (Homo sapiens) (UniProt Q92769); test: Induction of HDAC2 cysteine S-nitrosylation in human HaCaT cells at 10 uM after 1 hr by immunoprecipitation method; format: cell-based
HaCaT [19] = test: Induction of NO release in human HaCaT cells at 10 uM after 1 to 5 hrs by DAF-2D-based FACS analysis relative to DMSO-treated control; format: functional, cell-based
HaCaT [20] = test: Induction of NO release in human HaCaT cells assessed as Production of [3H]cGMP after 1 hr by liquid scintillation counting; format: functional, cell-based
[21] = biological target: T1, Histone deacetylase (Homo sapiens); conditions: HaCaT, at 1 to 50 µM
Description: Inhibition of HDAC activity in human HaCaT cell lysate at 1 to 50 uM after 1 hr by colorimetry

C2C12 [22] = test: Increase in mouse C2C12 cell proliferation at 0.1 uM after 72 hrs; format: functional, cell-based
[23] = biological target: T1, Histone deacetylase (Homo sapiens); test: Effect on HDAC in human HaCaT cells assessed as downregulation of miR-505# at 10 uM after 1 hr by RT-PCR analysis; format: cell-based
[24] = biological target: T1, Histone deacetylase (Homo sapiens); test: Effect on HDAC in human HaCaT cells assessed as upregulation of miR-30d# at 10 uM after 1 hr by RT-PCR analysis; format: cell-based
[25] = biological target: T1, Histone deacetylase (Homo sapiens); test: Effect on HDAC in human HaCaT cells assessed as upregulation of miR-1296 at 10 uM after 1 hr by RT-PCR analysis; format: cell-based
[26] = biological target: T1, Histone deacetylase (Homo sapiens); test: Inhibition of HDAC activity in human HaCaT cell lysate at 50 uM after 1 hr by colorimetry; format: cell-free

Chain of Histone deacetylase 4 (Homo sapiens) (P56524 whole entry): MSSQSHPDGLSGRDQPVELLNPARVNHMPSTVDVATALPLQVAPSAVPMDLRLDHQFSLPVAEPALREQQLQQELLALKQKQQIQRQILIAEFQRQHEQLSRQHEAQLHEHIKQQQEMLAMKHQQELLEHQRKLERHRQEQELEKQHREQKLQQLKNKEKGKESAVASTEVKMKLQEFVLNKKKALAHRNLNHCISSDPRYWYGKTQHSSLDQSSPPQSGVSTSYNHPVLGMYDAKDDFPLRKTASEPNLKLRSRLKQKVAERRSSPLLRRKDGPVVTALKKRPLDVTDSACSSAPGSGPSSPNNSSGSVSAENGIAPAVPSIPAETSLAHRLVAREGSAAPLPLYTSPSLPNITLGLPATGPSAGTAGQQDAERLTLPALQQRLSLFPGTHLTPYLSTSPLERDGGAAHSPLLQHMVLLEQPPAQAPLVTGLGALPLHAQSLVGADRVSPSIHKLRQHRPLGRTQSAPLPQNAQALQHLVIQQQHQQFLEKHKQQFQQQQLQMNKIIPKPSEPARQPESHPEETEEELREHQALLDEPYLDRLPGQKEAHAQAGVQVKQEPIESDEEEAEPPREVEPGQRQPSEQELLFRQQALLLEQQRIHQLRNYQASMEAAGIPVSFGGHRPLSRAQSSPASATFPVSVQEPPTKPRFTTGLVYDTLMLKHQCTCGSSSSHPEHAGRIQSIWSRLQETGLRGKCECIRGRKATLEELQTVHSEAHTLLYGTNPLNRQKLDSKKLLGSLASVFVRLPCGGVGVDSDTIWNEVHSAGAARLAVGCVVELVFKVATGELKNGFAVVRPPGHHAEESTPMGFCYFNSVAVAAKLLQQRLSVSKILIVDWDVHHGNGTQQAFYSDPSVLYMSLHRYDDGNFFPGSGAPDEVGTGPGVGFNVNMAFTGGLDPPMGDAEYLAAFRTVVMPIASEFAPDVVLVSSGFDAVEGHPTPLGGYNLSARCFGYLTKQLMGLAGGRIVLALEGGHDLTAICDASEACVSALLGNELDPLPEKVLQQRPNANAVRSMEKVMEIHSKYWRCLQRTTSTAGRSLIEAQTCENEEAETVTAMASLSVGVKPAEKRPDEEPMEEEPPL
Chain of Histone deacetylase 2 (Homo sapiens) (Q92769 whole entry): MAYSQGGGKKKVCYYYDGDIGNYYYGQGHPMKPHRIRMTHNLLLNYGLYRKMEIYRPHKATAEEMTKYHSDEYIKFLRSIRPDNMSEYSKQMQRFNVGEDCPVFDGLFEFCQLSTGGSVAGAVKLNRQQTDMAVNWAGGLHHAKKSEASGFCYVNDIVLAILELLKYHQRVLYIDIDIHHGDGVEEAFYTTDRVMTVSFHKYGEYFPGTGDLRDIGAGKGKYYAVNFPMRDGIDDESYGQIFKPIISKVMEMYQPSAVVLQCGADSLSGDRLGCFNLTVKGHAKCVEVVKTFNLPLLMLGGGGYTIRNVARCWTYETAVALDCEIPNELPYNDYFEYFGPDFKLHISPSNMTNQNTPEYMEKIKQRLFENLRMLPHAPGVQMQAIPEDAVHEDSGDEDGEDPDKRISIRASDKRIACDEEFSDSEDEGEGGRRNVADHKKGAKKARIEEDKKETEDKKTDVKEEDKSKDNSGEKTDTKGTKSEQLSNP

Activity [4]: Active | Activity [5]: Active | Activity [6]: Active | Activity [7]: Active | Activity [8]: Active | Activity [9]: Active | Activity [10]: Active | Activity [11]: Active | Activity [12]: Active | Activity [13]: Active | Activity [14]: Active | Activity [15]: Active | Activity [16]: Active | Activity [17]: inactive | Activity [18]: Active | inhibition [21]: Active
SMILES: CN(Cc1ccc(COC(=O)NCc2ccc(C(=O)Nc3ccccc3N)cc2)cn1)Cc1no[n+]([O-])c1C#N
Activity (C2C12 [1]): Active | Activity (C2C12 [2]): Active | Activity (C2C12 [3]): Active | Activity (HaCaT [19]): Active | Activity (HaCaT [20]): Dose-dependent effect

Activity [16]: inactive
SMILES: Nc1ccccc1NC(=O)c1ccc(CNC(=O)OCc2cccnc2)cc1
Activity (C2C12 [3]): Active | Activity (HaCaT [19]): inactive

Activity [14]: Active | Activity [15]: Active | Activity [23]: Active | Activity [24]: Active | Activity [25]: Active | Activity [16]: Active | inhibition [26]: Active
SMILES: CN(C)Cc1no[n+]([O-])c1C#N
Activity (C2C12 [22]): Active | Activity (HaCaT [19]): Active
